Reference: ChEMBL document CHEMBL1150317, “Discovery of aryl aminoquinazoline pyridones as potent, selective, and orally efficacious inhibitors of receptor tyrosine kinase c-Kit” (J Med Chem, 2008)
One block for each compound: values may come before it.

Experiments:
[1] = target: Vascular endothelial growth factor receptor 2 (Homo sapiens, UniProt P35968)
[2] = target: T1, Mast/stem cell growth factor receptor Kit (Homo sapiens, UniProt P10721)
[3] = Inhibition of p38 by TR-FRET assay
[4] = target: Proto-oncogene tyrosine-protein kinase Src (Homo sapiens, UniProt P12931)
Proto-oncogene tyrosine-protein kinase Src, sequence (P12931 2-536 limits assumed): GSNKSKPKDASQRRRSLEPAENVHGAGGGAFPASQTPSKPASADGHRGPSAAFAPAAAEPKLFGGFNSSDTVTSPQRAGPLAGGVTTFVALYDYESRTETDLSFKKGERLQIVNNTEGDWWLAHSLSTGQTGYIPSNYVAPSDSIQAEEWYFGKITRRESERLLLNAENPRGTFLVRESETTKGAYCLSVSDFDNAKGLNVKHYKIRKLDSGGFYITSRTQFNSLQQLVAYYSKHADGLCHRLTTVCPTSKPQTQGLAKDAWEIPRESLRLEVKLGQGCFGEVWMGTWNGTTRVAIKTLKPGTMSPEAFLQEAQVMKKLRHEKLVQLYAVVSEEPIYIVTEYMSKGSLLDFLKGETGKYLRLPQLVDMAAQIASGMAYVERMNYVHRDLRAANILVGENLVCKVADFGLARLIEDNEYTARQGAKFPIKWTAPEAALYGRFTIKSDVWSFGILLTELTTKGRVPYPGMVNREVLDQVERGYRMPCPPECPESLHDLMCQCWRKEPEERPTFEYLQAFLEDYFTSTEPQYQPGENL

[5] = target: Tyrosine-protein kinase Lck (Homo sapiens, UniProt P06239)
Tyrosine-protein kinase Lck, sequence (P06239 whole entry): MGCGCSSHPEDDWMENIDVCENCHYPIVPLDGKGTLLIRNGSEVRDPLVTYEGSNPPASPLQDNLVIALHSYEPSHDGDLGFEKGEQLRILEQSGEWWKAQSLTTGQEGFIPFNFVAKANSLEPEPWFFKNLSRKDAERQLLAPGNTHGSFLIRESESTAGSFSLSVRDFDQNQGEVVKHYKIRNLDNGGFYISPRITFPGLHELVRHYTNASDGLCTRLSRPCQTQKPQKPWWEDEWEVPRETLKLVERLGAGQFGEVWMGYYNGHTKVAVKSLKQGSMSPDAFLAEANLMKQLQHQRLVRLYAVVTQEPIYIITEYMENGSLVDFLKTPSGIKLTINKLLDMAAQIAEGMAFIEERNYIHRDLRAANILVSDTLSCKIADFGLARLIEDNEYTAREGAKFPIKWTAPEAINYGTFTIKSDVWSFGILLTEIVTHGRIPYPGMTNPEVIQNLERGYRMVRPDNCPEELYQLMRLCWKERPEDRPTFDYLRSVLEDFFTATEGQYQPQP

[6] = target: T1, Mast/stem cell growth factor receptor Kit; remark: listed apart in the source
[7] = Inhibition of HGK at 1 uM relative to control
[8] = Cmax in Sprague-Dawley rat at 10 mg/kg, po; assay type: ADME, organism-based; parameters: dose 10 mg/kg, route oral; conditions: in vivo
[9] = target: Ribosomal protein S6 kinase beta-1 (Homo sapiens) (UniProt P23443); assay: Inhibition of P70S6 at 1 uM relative to control
[10] = Inhibition of CAMK2 at 1 uM relative to control
[11] = target: Serine/threonine-protein kinase 3 (Homo sapiens) (UniProt Q13188); assay: Inhibition of MST2 at 1 uM relative to control
Serine/threonine-protein kinase 3 (Homo sapiens), sequence (Q13188 whole entry): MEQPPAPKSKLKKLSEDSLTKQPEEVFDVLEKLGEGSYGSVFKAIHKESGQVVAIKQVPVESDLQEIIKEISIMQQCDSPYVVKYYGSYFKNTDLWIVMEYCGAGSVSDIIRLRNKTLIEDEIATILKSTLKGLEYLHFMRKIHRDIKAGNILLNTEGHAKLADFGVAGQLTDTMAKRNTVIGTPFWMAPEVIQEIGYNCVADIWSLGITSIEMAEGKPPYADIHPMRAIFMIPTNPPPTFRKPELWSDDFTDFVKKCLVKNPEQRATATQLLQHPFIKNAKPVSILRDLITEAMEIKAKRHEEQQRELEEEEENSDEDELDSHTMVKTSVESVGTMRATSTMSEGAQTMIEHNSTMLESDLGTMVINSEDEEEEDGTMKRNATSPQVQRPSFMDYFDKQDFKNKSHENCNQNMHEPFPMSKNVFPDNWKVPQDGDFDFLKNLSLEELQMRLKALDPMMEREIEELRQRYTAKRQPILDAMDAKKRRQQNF

[12] = Inhibition of EDK2 at 1 uM relative to control
[13] = target: Tyrosine-protein kinase ABL1 (Homo sapiens, UniProt P00519); assay: Inhibition of Abl by TR-FRET assay
Tyrosine-protein kinase ABL1, sequence (P00519 whole entry): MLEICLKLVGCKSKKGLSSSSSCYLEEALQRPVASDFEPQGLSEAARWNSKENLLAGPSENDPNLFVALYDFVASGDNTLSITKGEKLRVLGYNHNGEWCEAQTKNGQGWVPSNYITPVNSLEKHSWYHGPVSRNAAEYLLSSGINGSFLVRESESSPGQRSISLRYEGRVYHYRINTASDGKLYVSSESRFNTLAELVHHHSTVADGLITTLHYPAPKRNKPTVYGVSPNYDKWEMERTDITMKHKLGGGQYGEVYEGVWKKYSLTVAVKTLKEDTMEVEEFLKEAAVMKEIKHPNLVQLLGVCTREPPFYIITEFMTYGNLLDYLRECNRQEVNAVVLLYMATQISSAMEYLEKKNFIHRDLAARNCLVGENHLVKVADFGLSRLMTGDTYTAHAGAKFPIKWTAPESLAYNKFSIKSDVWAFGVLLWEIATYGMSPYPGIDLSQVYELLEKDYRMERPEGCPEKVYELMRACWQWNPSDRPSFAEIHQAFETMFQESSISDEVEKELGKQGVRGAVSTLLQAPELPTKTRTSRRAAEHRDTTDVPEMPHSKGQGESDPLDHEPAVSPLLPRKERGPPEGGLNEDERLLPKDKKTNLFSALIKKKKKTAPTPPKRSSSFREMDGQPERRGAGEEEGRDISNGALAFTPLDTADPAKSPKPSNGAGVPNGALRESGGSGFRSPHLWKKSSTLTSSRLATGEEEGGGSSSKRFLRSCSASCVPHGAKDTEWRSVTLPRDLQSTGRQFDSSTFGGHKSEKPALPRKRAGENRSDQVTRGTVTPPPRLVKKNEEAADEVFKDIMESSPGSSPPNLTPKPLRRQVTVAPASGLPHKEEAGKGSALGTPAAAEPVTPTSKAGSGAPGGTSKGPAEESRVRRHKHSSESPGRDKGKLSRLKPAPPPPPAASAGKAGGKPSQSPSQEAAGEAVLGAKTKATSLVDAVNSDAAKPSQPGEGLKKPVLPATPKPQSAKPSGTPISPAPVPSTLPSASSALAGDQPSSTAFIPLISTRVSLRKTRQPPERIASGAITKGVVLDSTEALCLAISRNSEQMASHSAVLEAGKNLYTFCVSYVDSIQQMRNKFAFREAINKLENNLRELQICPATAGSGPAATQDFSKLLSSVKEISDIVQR

[14] = target: Tyrosine-protein kinase BTK (Homo sapiens) (UniProt Q06187); assay: Inhibition of BTK at 1 uM relative to control
[15] = target: Protein kinase C beta type (Homo sapiens) (UniProt P05771); assay: Inhibition of PKCbeta2 at 1 uM relative to control
[16] = target: Mitogen-activated protein kinase 3 (Homo sapiens) (UniProt P27361); assay: Inhibition of ERK1 at 1 uM relative to control
[17] = Clearance in Sprague-Dawley rat at 1 mg/kg, iv; assay type: ADME, organism-based; parameters: dose 1 mg/kg, route intravenous; conditions: in vivo
[18] = Inhibition of PKGalpha at 1 uM relative to control
[19] = target: Fibroblast growth factor receptor 1 (Homo sapiens) (UniProt P11362); assay: Inhibition of FGFR1 at 1 uM relative to control
[20] = Volume of distribution at steady state in Sprague-Dawley rat at 1 mg/kg, iv; assay type: ADME, organism-based; parameters: dose 1 mg/kg, route intravenous; conditions: in vivo, read-out: Vdss
[21] = target: Serine/threonine-protein kinase MARK1 (Homo sapiens) (UniProt Q9P0L2); assay: Inhibition of MARK1 at 1 uM relative to control
[22] = target: Calcium/calmodulin-dependent protein kinase type IV (Homo sapiens) (UniProt Q16566); assay: Inhibition of CAMK4 at 1 uM relative to control
[23] = target: Aurora kinase A (Homo sapiens) (UniProt O14965); assay: Inhibition of AurA at 1 uM relative to control
[24] = target: Tyrosine-protein kinase SYK (Homo sapiens) (UniProt P43405); assay: Inhibition of SYK at 1 uM relative to control
[25] = target: Glycogen synthase kinase-3 beta (Homo sapiens) (UniProt P49841); assay: Inhibition of GSK3-beta at 1 uM relative to control
[26] = target: Serine/threonine-protein kinase D2 (Homo sapiens) (UniProt Q9BZL6); assay: Inhibition of PKD2 at 1 uM relative to control
[27] = target: RAF proto-oncogene serine/threonine-protein kinase (Homo sapiens) (UniProt P04049); assay: Inhibition of CRAF at 1 uM relative to control
[28] = Inhibition of PKA at 1 uM relative to control
[29] = target: Serine/threonine-protein kinase pim-2 (Homo sapiens) (UniProt Q9P1W9); assay: Inhibition of PIM2 at 1 uM relative to control
[30] = target: Casein kinase I isoform delta (Homo sapiens) (UniProt P48730); assay: Inhibition of CK1delta at 1 uM relative to control
[31] = Oral bioavailability in Sprague-Dawley rat at 10 mg/kg; assay type: ADME, organism-based; conditions: in vivo
[32] = target: Serine/threonine-protein kinase Chk1 (Homo sapiens) (UniProt O14757); assay: Inhibition of CHK1 at 1 uM relative to control
[33] = target: RAC-alpha serine/threonine-protein kinase (Homo sapiens) (UniProt P31749); assay: Inhibition of AKT1 at 1 uM relative to control
[34] = target: Protein kinase C zeta type (Homo sapiens) (UniProt Q05513); assay: Inhibition of PKCzeta at 1 uM relative to control
[35] = target: Serine/threonine-protein kinase Chk2 (Homo sapiens) (UniProt O96017); assay: Inhibition of CHK2 at 1 uM relative to control
[36] = Half life in Sprague-Dawley rat at 10 mg/kg, po; assay type: ADME, organism-based; parameters: dose 10 mg/kg, route oral; conditions: in vivo
[37] = target: Mitogen-activated protein kinase 1 (Homo sapiens) (UniProt P28482); assay: Inhibition of ERK2 at 1 uM relative to control
[38] = target: Mitogen-activated protein kinase kinase kinase 7 (Homo sapiens) (UniProt O43318); assay: Inhibition of TAK1 at 1 uM relative to control
[39] = target: Receptor-type tyrosine-protein kinase FLT3 (Homo sapiens) (UniProt P36888); assay: Inhibition of FLT3 at 1 uM relative to control
[40] = target: Ribosomal protein S6 kinase alpha-1 (Homo sapiens) (UniProt Q15418); assay: Inhibition of RSK1 at 1 uM relative to control
[41] = target: MAP kinase-activated protein kinase 2 (Homo sapiens) (UniProt P49137); assay: Inhibition of MAPKAPK2 at 1 uM relative to control
[42] = target: Rho-associated protein kinase 2 (Homo sapiens) (UniProt O75116); assay: Inhibition of ROCK2 at 1 uM relative to control
[43] = target: Insulin receptor (Homo sapiens) (UniProt P06213); assay: Inhibition of INSR at 1 uM relative to control
[44] = target: Serine/threonine-protein kinase Sgk1 (Homo sapiens) (UniProt O00141); assay: Inhibition of SGK1 at 1 uM relative to control
[45] = target: 5'-AMP-activated protein kinase subunit beta-1 (Homo sapiens) (UniProt Q9Y478); assay: Inhibition of AMPK at 1 uM relative to control
[46] = target: Serine/threonine-protein kinase PAK 2 (Homo sapiens) (UniProt Q13177); assay: Inhibition of PAK2 at 1 uM relative to control
[47] = target: Hepatocyte growth factor receptor (Homo sapiens) (UniProt P08581); assay: Inhibition of MET at 1 uM relative to control
[48] = target: RAC-beta serine/threonine-protein kinase (Homo sapiens) (UniProt P31751); assay: Inhibition of AKT2 at 1 uM relative to control
[49] = AUC (0 to t) in Sprague-Dawley rat at 10 mg/kg, po; assay type: ADME, organism-based; parameters: dose 10 mg/kg, route oral; conditions: plasma
[50] = target: MAP kinase-activated protein kinase 5 (Homo sapiens) (UniProt Q8IW41); assay: Inhibition of PRAK at 1 uM relative to control
[51] = target: Interleukin-1 receptor-associated kinase 4 (Homo sapiens) (UniProt Q9NWZ3); assay: Inhibition of IRAK4 at 1 uM relative to control
[52] = target: Dual specificity tyrosine-phosphorylation-regulated kinase 1A (Homo sapiens) (UniProt Q13627); assay: Inhibition of DYRK1alpha at 1 uM relative to control
[53] = target: Insulin-like growth factor 1 receptor (Homo sapiens) (UniProt P08069); assay: Inhibition of IGFIR at 1 uM relative to control

Vascular endothelial growth factor receptor 2, sequence (P35968 whole entry): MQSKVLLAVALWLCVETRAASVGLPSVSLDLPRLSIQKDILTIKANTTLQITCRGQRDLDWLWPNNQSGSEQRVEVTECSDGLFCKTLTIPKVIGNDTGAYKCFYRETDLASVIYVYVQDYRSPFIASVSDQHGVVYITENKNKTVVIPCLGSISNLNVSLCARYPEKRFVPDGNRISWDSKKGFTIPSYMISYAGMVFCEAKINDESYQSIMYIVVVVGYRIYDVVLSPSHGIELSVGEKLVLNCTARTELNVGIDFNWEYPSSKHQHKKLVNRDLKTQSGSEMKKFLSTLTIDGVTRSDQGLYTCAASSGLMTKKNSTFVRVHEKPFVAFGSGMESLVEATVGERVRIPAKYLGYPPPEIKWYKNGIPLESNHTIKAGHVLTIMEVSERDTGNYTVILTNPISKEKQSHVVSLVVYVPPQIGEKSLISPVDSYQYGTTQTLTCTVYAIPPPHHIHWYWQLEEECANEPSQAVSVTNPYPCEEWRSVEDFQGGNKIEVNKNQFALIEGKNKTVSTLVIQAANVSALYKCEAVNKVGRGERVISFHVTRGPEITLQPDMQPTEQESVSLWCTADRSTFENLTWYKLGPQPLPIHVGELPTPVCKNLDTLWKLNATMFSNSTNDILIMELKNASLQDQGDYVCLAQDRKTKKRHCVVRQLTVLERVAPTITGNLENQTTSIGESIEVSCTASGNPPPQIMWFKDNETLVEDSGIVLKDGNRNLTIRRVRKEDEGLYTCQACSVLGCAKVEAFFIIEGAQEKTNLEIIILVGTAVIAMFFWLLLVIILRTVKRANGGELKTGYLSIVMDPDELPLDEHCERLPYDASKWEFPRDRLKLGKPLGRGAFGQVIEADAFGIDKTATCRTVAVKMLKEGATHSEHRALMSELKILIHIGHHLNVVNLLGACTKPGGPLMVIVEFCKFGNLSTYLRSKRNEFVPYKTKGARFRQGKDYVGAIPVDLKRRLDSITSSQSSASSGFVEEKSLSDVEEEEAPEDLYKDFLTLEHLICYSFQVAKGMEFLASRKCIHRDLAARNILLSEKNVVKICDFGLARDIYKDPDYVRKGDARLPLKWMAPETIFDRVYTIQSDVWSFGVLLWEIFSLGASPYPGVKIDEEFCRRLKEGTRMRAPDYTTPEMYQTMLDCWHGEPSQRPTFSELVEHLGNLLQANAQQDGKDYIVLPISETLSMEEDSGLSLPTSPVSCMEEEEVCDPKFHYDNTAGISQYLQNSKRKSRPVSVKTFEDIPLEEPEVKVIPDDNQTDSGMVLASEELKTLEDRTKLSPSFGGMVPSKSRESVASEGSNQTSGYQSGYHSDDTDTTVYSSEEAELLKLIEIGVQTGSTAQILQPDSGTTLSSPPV
T1 sequence (P10721 whole entry): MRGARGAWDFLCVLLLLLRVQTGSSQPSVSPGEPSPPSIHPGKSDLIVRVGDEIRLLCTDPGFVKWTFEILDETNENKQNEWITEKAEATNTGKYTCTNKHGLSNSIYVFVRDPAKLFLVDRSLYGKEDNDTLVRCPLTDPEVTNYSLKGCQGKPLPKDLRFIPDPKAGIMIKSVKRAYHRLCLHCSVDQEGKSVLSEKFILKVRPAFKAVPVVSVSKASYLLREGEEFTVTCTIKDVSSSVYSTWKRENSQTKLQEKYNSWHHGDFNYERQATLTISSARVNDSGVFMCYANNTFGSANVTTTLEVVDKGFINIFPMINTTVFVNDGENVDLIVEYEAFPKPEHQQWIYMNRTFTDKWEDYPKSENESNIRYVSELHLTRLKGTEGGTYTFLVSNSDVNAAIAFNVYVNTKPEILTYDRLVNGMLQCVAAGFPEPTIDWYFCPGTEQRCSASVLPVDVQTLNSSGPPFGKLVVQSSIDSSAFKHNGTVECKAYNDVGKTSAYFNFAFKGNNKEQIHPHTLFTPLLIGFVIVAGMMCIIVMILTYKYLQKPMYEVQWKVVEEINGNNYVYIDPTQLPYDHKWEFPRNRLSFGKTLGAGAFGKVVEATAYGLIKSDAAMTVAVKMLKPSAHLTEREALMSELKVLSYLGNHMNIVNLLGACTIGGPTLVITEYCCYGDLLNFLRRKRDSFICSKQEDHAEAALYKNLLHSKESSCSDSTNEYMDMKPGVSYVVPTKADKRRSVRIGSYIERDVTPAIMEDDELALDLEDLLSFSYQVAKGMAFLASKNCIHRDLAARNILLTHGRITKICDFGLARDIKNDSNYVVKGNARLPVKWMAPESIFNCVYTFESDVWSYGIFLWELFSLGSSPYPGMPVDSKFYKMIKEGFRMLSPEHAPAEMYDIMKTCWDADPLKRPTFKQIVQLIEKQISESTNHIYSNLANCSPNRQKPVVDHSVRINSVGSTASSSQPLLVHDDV

- IC50 [1]: > 5000 nM
- IC50 [2]: 14 nM
- IC50 [3]: 4900 nM
- IC50 [4]: 260 nM
- IC50 [5]: 340 nM
Structure (SMILES): Cc1ccn(-c2ccc(Cl)cc2)c(=O)c1-c1ccc2nc(N)ncc2c1

- IC50 [6]: 22 nM
- inhibition [7]: > 50%
- Cmax [8]: 1230 ng/mL
- inhibition [9]: > 50%
- inhibition [10]: > 50%
- inhibition [11]: > 50%
- inhibition [12]: > 50%
- IC50 [13]: > 25000 nM
- inhibition [14]: > 50%
- IC50 [1]: > 5000 nM
- inhibition [15]: > 50%
- inhibition [16]: > 50%
- clearance [17]: 7.67 mL/min/kg
- inhibition [18]: > 50%
- inhibition [19]: > 50%
- Vd [20]: 1.59 L/kg
- inhibition [21]: > 50%
- inhibition [22]: > 50%
- inhibition [23]: > 50%
- IC50 [2]: 16 nM
- inhibition [24]: > 50%
- IC50 [3]: 40000 nM
- inhibition [25]: > 50%
- inhibition [26]: > 50%
- inhibition [27]: > 50%
- inhibition [28]: > 50%
- inhibition [29]: > 50%
- inhibition [30]: > 50%
- IC50 [4]: > 5000 nM
- bioavailability [31]: 39%
- inhibition [32]: > 50%
- inhibition [33]: > 50%
- inhibition [34]: > 50%
- inhibition [35]: > 50%
- half-life [36]: 2.6 h
- inhibition [37]: > 50%
- inhibition [38]: > 50%
- inhibition [39]: > 50%
- inhibition [40]: > 50%
- inhibition [41]: > 50%
- inhibition [42]: > 50%
- inhibition [43]: > 50%
- inhibition [44]: > 50%
- inhibition [45]: > 50%
- inhibition [46]: > 50%
- IC50 [5]: 7800 nM
- inhibition [47]: > 50%
- inhibition [48]: > 50%
- AUC(0-t) [49]: 9860 ng·h/mL
- inhibition [50]: > 50%
- inhibition [51]: > 50%
- inhibition [52]: > 50%
- inhibition [53]: > 50%
Structure (SMILES): Cc1ccn(-c2ccc(-c3ncco3)cc2)c(=O)c1-c1ccc2nc(N)ncc2c1

- IC50 [6]: 210 nM
- IC50 [1]: > 1000 nM
- IC50 [4]: 990 nM
- IC50 [5]: 1700 nM
Structure (SMILES): Cc1ccn(-c2ccccc2)c(=O)c1-c1ccc2nc(N)ncc2c1

- IC50 [1]: 4400 nM
- IC50 [2]: 72 nM
- IC50 [3]: 21000 nM
- IC50 [4]: 1400 nM
- IC50 [5]: 1800 nM
Structure (SMILES): Cc1ccn(-c2ccc(N3CCOCC3)cc2)c(=O)c1-c1ccc2nc(N)ncc2c1

- IC50 [6]: 7.9 nM
- IC50 [1]: 1800 nM
- IC50 [2]: 18 nM
- IC50 [3]: 3900 nM
- IC50 [4]: 750 nM
- IC50 [5]: 1200 nM
Structure (SMILES): Cc1ccn(-c2ccc(C(F)(F)F)cc2)c(=O)c1-c1ccc2nc(N)ncc2c1

Structure (SMILES): Cc1ccn(-c2ccc(-n3cccn3)cc2)c(=O)c1-c1ccc2nc(N)ncc2c1
- IC50 [1]: 3400 nM
- IC50 [2]: 18 nM
- IC50 [3]: 3800 nM
- IC50 [4]: 77 nM
- IC50 [5]: 110 nM

- IC50 [1]: > 5000 nM
- IC50 [2]: 28 nM
- IC50 [3]: 8000 nM
- IC50 [4]: 270 nM
- IC50 [5]: 410 nM
Structure (SMILES): COc1cccc(-n2ccc(C)c(-c3ccc4nc(N)ncc4c3)c2=O)c1

Structure (SMILES): Cc1ccn(-c2ccc3c(c2)NCC3(C)C)c(=O)c1-c1ccc2nc(N)ncc2c1
- IC50 [6]: 6.1 nM
- IC50 [3]: 200 nM
- IC50 [4]: 400 nM
- IC50 [5]: 19 nM

- IC50 [1]: 4300 nM
- IC50 [2]: 18 nM
- IC50 [3]: 4500 nM
- IC50 [4]: 43 nM
- IC50 [5]: 740 nM
Structure (SMILES): Cc1cc(-n2ccc(C)c(-c3ccc4nc(N)ncc4c3)c2=O)ccc1F
